# In US9907737B2, “Composition comprising ferulic acid ethyl ester and aryl alkanol” (L'AIR LIQUIDE, SOCIETE ANONYME POUR L'ETUDE ET …, priority 2013, dated 2018):
# Marks after values point to notes of the source that are not given here.
# What was measured:
# E. coli ATCC: 11229 = experiment: Bacterial count reduction test (method 1), E. coli; assay type: cell-based, Escherichia coli; settings: o/w cream, initial bacterial count 1.3 × 10^9
# Description: (§1) Method 1: Bacterial Count Reduction Test
# (§2) The aim of this bacterial count reduction test is to determine suitable preservatives and reaction times for samples injected in the laboratory.
# (§3) Staphylococcus aureus, Escherichia coli or Pseudomonas aeruginosa, Candida albicans, Aspergillus brasiliensis
# (§4) From a 24-hour CS-angular agar culture (I subculture) of Staphylococcus aureus/Escherichia coli 24-hour CSL-cultures (II subculture) are created. The incubation is carried out at 37° C. The titer of the bacterial suspension is about 10^9 CFU/ml.
# (§5) The titres of the respectively produced test organism suspensions are determined by means of a dilution series in physiological NaCl and recorded.
# (§6) The samples are displaced with different concentrations of suitable preservatives. For each test bacterium a dilution series is required. The samples are injected individually with the respective test organism suspension and stirred well:
# (§7) 25 g samples=0.1 ml bacterial suspension
# (§8) 50 g samples=0.2 ml bacterial suspension.
# (§9) After the indicated reaction times the samples are firstly stirred homogenously with a sterile glass rod and then spread onto CSA or SA agar. The bacteria samples are spread onto CSA and incubated for 48 hours at 37° C. The mould and yeast samples are spread onto SA agar and incubated for 48 hours at 37° C. (Candida albicans) and at 25° C. (Aspergillus brasiliensis).
# [1] = tested on: A. brasiliensis ATCC: 16404; experiment: Bacterial count reduction test (method 1), A. brasiliensis; assay type: cell-based, Aspergillus brasiliensis
# Description: as §1, §2, §3
# A 7 to 14 days old Aspergillus brasiliensis culture on SA agar (25° C.±1° C.) is washed with 5 ml physiological NaCl, filtered by a glass funnel with glass wool and filled with physiological NaCl to 100 ml. The titre of the Aspergillus brasiliensis suspension is about 10^7 CFU/ml.
# as §5, §6, §7, §8, §9
# S. aureus ATCC: 6538 = experiment: Bacterial count reduction test (method 1), S. aureus; assay type: cell-based, Staphylococcus aureus; settings: o/w cream, initial bacterial count 1 × 10^9
# Description: as §1, §2, §3, §4, §5, §6, §7, §8, §9
# [2] = tested on: Staphylococcus aureus, Escherichia coli or Pseudomonas aeruginosa, Candida albicans, Aspergillus brasiliensis; experiment: Bacterial count reduction test (method 1), summary in words over the test organisms; assay type: cell-based; settings: Example 3, Table 4; o/w-Lotion; concentration of 2%
# Description: as §1, §2, §3, §6, §9
# C. albicans ATCC: 10231 = experiment: Bacterial count reduction test (method 1), C. albicans; assay type: cell-based, Candida albicans
# Description: as §1, §2, §3
# A 4 day old Candida albicans culture on SA-agar (II subculture) is washed with 5 ml physiological NaCl and adjusted according to a barium sulphate standard (cf. DVG Guidelines). The titer of the Candida albicans suspension is 10^8 CFU/ml.
# as §5, §6, §7, §8, §9
# [3] = o/w cream, initial bacterial count 1.5 × 10^7
# [4] = o/w-Lotion, initial bacterial count 7.7 × 10^7
# [5] = o/w cream, initial bacterial count 4.1 × 10^8
# [6] = o/w-Lotion, initial bacterial count 5.4 × 10^8
structure (smiles),measurement,setting,value
"COc1cc(/C=C/C(=O)O)ccc1O [0.1% ferulic acid, ferulic acid]",Growth of E. coli ATCC: 11229 after 24 hours,E. coli ATCC: 11229; 24 h,++++ (Massive growth About 10^5)
same,Growth of E. coli ATCC: 11229 after 72 hours,E. coli ATCC: 11229; 72 h,R (Surface covered About 10^6)
same,Growth of E. coli ATCC: 11229 after 168 hours,E. coli ATCC: 11229; 168 h,R (Surface covered About 10^6)
same,Growth of E. coli ATCC: 11229 after 336 hours,E. coli ATCC: 11229; 336 h,R (Surface covered About 10^6)
same,Growth of A. brasiliensis ATCC: 16404 after 24 hours,[1]; [3],++++ (Massive growth About 10^5)
same,Growth of A. brasiliensis ATCC: 16404 after 72 hours,[1]; [3],++++ (Massive growth About 10^5)
same,Growth of A. brasiliensis ATCC: 16404 after 168 hours,[1]; [3],++++ (Massive growth About 10^5)
same,Growth of A. brasiliensis ATCC: 16404 after 336 hours,[1]; [3],++++ (Massive growth About 10^5)
same,Growth of A. brasiliensis ATCC: 16404 after 24 hours,[1]; [4],++++ (Massive growth About 10^5)
same,Growth of A. brasiliensis ATCC: 16404 after 72 hours,[1]; [4],++++ (Massive growth About 10^5)
same,Growth of A. brasiliensis ATCC: 16404 after 168 hours,[1]; [4],++++ (Massive growth About 10^5)
same,Growth of A. brasiliensis ATCC: 16404 after 336 hours,[1]; [4],++++ (Massive growth About 10^5)
same,Growth of S. aureus ATCC: 6538 after 24 hours,S. aureus ATCC: 6538; 24 h,R (Surface covered About 10^6)
same,Growth of S. aureus ATCC: 6538 after 72 hours,S. aureus ATCC: 6538; 72 h,++++ (Massive growth About 10^5)
same,Growth of S. aureus ATCC: 6538 after 168 hours,S. aureus ATCC: 6538; 168 h,++++ (Massive growth About 10^5)
same,Growth of S. aureus ATCC: 6538 after 336 hours,S. aureus ATCC: 6538; 336 h,++++ (Massive growth About 10^5)
same,"Effectiveness in bacterial count reduction test, in words",[2],inherent effectiveness
same,Growth of C. albicans ATCC: 10231 after 24 hours,C. albicans ATCC: 10231; [5],R (Surface covered About 10^6)
same,Growth of C. albicans ATCC: 10231 after 72 hours,C. albicans ATCC: 10231; [5],R (Surface covered About 10^6)
same,Growth of C. albicans ATCC: 10231 after 168 hours,C. albicans ATCC: 10231; [5],++++ (Massive growth About 10^5)
same,Growth of C. albicans ATCC: 10231 after 336 hours,C. albicans ATCC: 10231; [5],++++ (Massive growth About 10^5)
same,Growth of C. albicans ATCC: 10231 after 24 hours,C. albicans ATCC: 10231; [6],R (Surface covered About 10^6)
same,Growth of C. albicans ATCC: 10231 after 72 hours,C. albicans ATCC: 10231; [6],R (Surface covered About 10^6)
same,Growth of C. albicans ATCC: 10231 after 168 hours,C. albicans ATCC: 10231; [6],++++ (Massive growth About 10^5)
same,Growth of C. albicans ATCC: 10231 after 336 hours,C. albicans ATCC: 10231; [6],++++ (Massive growth About 10^5)
